{"source": "patent US11365415B2", "about": "“Use of miR-223-3p as a cancer therapeutic and method for treating cancer using the same” (University of Florida Research Foundation, Inc., priority 2016, dated 2022)", "assay_type_in_all_cases": "cell-based", "key": {"[1]": {"system": "endogenous miR-223-3p in HL60 cells", "test": "qRT-PCR of endogenous miR-223-3p in HL60 cells after Ara-C", "conditions": "50 μM Ara-C, different time points", "description": "Quantitative real time PCR (qRT-PCR) measuring endogenous miR-223 If miR-223-3p is a physiologic regulator of PARP1 expression, then its expression should be repressed after DNA damage, when higher levels of PARP1 are required to repair this damage. Mir223-3p is most highly expressed in hematopoietic cells, such as the HL60 cell line. HL60 cells were treated with 50 μM cytarabine (Ara-C) for lhr, 4 hr, 8 hr, 12 hr and 24 hr. Western blot analysis was performed to examine PARP1 protein levels in these samples. For measuring levels of miR-223-3p, cells were collected at the above time points, RNA isolated using the Qiagen RNeasy kit. cDNA conversion was then performed using first-strand cDNA synthesis kit for miRNA from Origene (HP100042). qRT-PCR for miR-223 3p was performed on a 7900HT Fast Real-Time PCR system (ABI) according to Origene protocol and ACT values were calculated. […]\nQuantitative Real Time PCR (qRT-PCR) Measuring Endogenous miR223-3p. […] For measuring levels of miR223-3p, cells were collected at the above time points, RNA isolated using the Qiagen RNeasy kit. cDNA conversion was then performed using first-strand cDNA synthesis kit for miRNA from Origene (HP100042). qRT-PCR for miR223 3p was performed on a 7900HT Fast Real-Time PCR system (ABI) according to Origene protocol and ΔCT values were calculated. […]"}, "[2]": {"system": "Human Mesothelioma cells (H-Meso 01A)", "test": "Colony formation of BAP1 mutant human mesothelioma cells treated with olaparib", "conditions": "3 olaparib, 10 days continuous", "description": "These cells were treated with the PARP inhibitor, olaparib. Human Mesothelioma cells (H-Meso 01A) were cultured in RPMI media supplemented with 10% FBS and 1% Penicillin/Streptomycin. These cells were seeded in a 6-well plate at a density of 4000 cells/well and allowed to grow for 18 hours. Of the six wells, three wells were treated with […] (LC laboratories, Cat #0-9201) each and the other three wells were considered as controls. The cells were allowed to grow for 10 days. Olaparib stayed on the cells throughout the experiment. After 10 days of incubation, colonies were stained with 0.1% crystal violet in methanol and counted using Image J software. Olaparib killed at least 80-90% of the cells. The experiment was done three times, each in triplicates and the average from all three times was calculated (FIG. 24)."}, "[3]": {"system": "other DNA repair components as well as PARP1", "test": "Western blot of DNA repair components after miR223-3p mimic", "conditions": "MDA MB 436, HCC1937 and H2452 cells, 48 hours after transfection, vs scr control", "description": "(§1) Cell Culture, miRNA transfection and Survival Assay. The BRCA1-deficient MDA-MB-436 breast cancer cells were cultured in DMEM supplemented with 10% FBS and 1% penicillin and streptomycin. BRRCA1-deficient UWB1.289 ovarian cancer cells were cultured and maintained in 50% MEBM medium with growth factors and 50% RPMI medium supplemented with 3% FBS and 1% penicillin and streptomycin. BAP1-mutant H2452 mesothelioma cells were cultured in RPMI 1640 medium supplemented with 10% fetal bovine serum and 1% penicillin and streptomycin. 25 nm of mirVana miR223-3p mimic from Ambion life technologies (Cat #4464067) was used to deplete PARP1 protein in these cell lines. Mir223-3p was encapsulated into the lipid transfection complex, RNAiMAX. 25 nm of mir223-3p was incubated in 500 µL Opti-MEM plus 6 ul of RNAiMAX for 20 mins at room temperature, and then added to the cells for a final volume of 1 ml. After 48 hours, the cells were trypsinized, counted and plated in 6 well plates at a density of 4000 cells per well, in triplicates. After 14 days of incubation, colonies were stained with 0.1% crystal violet in methanol and counted using Image J software. PARP1 repression by mir223-3p was shown by western blot. PARP1 antibody was purchased from Cell Signaling (46D11). FIG. 44 illustrates the depletion of other DNA repair components in addition to PARP1."}, "PARP1": {"system": "PARP1", "test": "Western analysis of PARP1 after exposure to miR-223-3p mimic", "conditions": "for PARP1 protein expression (Western): breast and ovarian cell lines harboring BRCA1 mutant (MDA-MB-436, UWB1.289); for PARP1 repression/knockdown (Western): cell line not given, 25 nM mimic in FIG. 33", "description": "(§2) Colony formation assays measures the ability of a single cell to not only survive, but also to proliferate. Thus, it is an indirect measurement of cancer stem cell activity, the ability of a single cell to give rise to a host of progeny. The BRCA1-deficient MDA-MB-436 breast cancer cells were cultured in DMEM supplemented with 10% FBS and 1% penicillin and streptomycin. BRRCA1-deficient UWB1.289 ovarian cancer cells were cultured and maintained in 50% MEBM medium with growth factors and 50% RPMI medium supplemented with 3% FBS and 1% penicillin and streptomycin. 25 nm of mirVana miR-223 3p mimic from Ambion life technologies (Cat #4464067) was used to deplete PARP1 protein in these cell lines. Mir223-3p was encapsulated into the lipid transfection complex, RNAiMAX. 25 nm of miR-223-3p was incubated in 500 μL Opti-MEM plus 6 μl of RNAiMAX for 20 mins at room temperature and then added to the cells for a final volume of 1 ml. After 48 hours, the cells were trypsinized, counted and plated in 6 well plates at a density of 4000 cells per well, in triplicates. After 14 days of incubation, colonies were stained with 0.1% crystal violet in methanol and counted using Image J software. PARP1 repression by miR-223-3p was shown by western blot. PARP1 antibody was purchased from Cell Signaling (46D11).\nas §1"}, "[4]": {"system": "UWB1.289 (ovarian cancer) cells, deficient in BRCA1", "test": "Colony formation survival assay, UWB1.289", "conditions": "UWB1.289, 25 nm miR-223-3p mimic, colonies counted after 14 days", "description": "as §2, with “25 nm of miR-223-3p was incubated in 500 μL Opti-MEM plus 6 μl of RNAiMAX for 20 mins at room temperature and then added to the cells for a final volume of 1 ml.” left out, “PARP1 repression by miR-223-3p was shown by western blot. PARP1 antibody was purchased from Cell Signaling (46D11).” left out\n(§3) Cell Culture, miRNA transfection and Survival Assay. […] After 48 hours, the cells were trypsinized, counted and plated in 6 well plates at a density of 4000 cells per well, in triplicates. After 14 days of incubation, colonies were stained with 0.1% crystal violet in methanol and counted using Image J software. […]"}, "[5]": {"system": "MDA-MB-436 (breast cancer) cells, deficient in BRCA1", "test": "Colony formation survival assay, MDA-MB-436", "conditions": "MDA-MB-436, 25 nm miR-223-3p mimic, colonies counted after 14 days", "description": "as §2, with “25 nm of miR-223-3p was incubated in 500 μL Opti-MEM plus 6 μl of RNAiMAX for 20 mins at room temperature and then added to the cells for a final volume of 1 ml.” left out, “PARP1 repression by miR-223-3p was shown by western blot. PARP1 antibody was purchased from Cell Signaling (46D11).” left out\nas §3"}, "PARP1 3′ UTR mRNA": {"system": "PARP1 3′ UTR mRNA", "test": "Luciferase assay for stability of PARP1 3′ UTR mRNA in A549 cells", "conditions": "normalized against Renilla luciferase", "description": "(§4) A549 cells were transfected with miR-223-3p mimic using RNAiMAX as above. After 6 hours, these cells were transfected with PARP 3′UTR plasmid fused with dual luciferase reporter from GeneCopoeia using Lipofectamine 2000. 48 hours post-transfection, cells were collected and assessed for luciferase activity using Luc-Pair Dual Luciferase assay kit from GeneCopoeia. The firefly luciferase activity is normalized against Renilla luciferase, which serves as a transfection control.\nas §4, with “Luciferase assay for assessing stability of PARP1 3′ UTR mRNA. A549” for “A549”, “miR223-3p” for “miR-223-3p”"}, "[6]": {"system": "MDA-MB-436 BRCA mutant cells", "test": "Active replication forks analysis (BrdU foci), MDA-MB-436", "conditions": "72 hours after miRNA transfection, BrdU 30 minutes", "description": "Active Replication Forks Analysis. Active Replication forks after miR223-3p mimic transfection were measured using immunofluorescent detection of BrdU foci after DNA denaturation. Briefly, 72 hours after transfection, cells were released into fresh media containing 10 uM BrdU (BD Biosciences, Franklin Lakes, N.J.) for 30 min. After washing, cells on coverslip were fixed and the DNA denatured using hydrochloric acid for BrdU immunostaining. The coverslips were processed for immunostaining using BrdU-specific antibody (Cell Signaling, Danvers, Mass.) and then incubated with a secondary antibody conjugated with Alexa Fluor dye from Invitrogen for 1 h. Cells were analyzed as above using the laser scanning confocal microscope. At least five hundred cells were counted for each condition from at least six distinct slides per condition for statistical analysis."}, "aNHEJ": {"system": "aNHEJ", "test": "Alternative non-homologous end joining (aNHEJ) assay in EJ2-GFP U2OS cells", "conditions": "prior exposure to miR-223-3p, I-SceI expression", "description": "PARP1 is involved in the initial step in aNHEJ DNA double strand break repair. If PARP1 is repressed, then aNHEJ is decreased. The EJ2-GFP U2OS system was used to assess aNHEJ. This reporter system contains single, integrated copy of reporter with I-SceI target sites. These sites were cleaved upon transfection of an I-SceI expression vector. Cells were transfected with miR-223 3p mimic using RNAiMAX. 24 hours after transfection, the cells were transfected with I-SceI vector using polyethylenimine (PEI). After 72 hours, EJ2 cells were trypsinized, washed with PBS and GFP-positive cells were measured using FACSort (Becton-Dickinson, San Jose, Calif.). The GFP positive cells are proportional to the aNHEJ frequency.\nAlternative Non-Homologous End Joining (aNHEJ) assay. PARP1 is the initial step in aNHEJ DNA double strand break repair. If PARP1 is repressed, then aNHEJ will be decreased. The EJ2-GFP U2OS system was used to assess aNHEJ. This reporter system contains single, integrated copy of reporter with I-SceI target sites. These sites were cleaved upon transfection of an I-SceI expression vector. Cells were transfected with miR223 3p mimic using RNAiMAX. […] After 72 hours, EJ2 cells were trypsinized, washed with PBS and GFP-positive cells were measured using FACSort (Becton-Dickinson, San Jose, Calif.). […]"}}}
{"molecule": "Nc1ccn([C@@H]2O[C@H](CO)[C@@H](O)[C@@H]2O)c(=O)n1", "note": "[Ara-C, cytarabine]", "values": [{"measurement": "levels of endogenous miR-223-3p (qRT-PCR)", "setting": "[1]", "value": "gradual decrease"}]}
{"molecule": "O=C(c1cc(Cc2n[nH]c(=O)c3ccccc23)ccc1F)N1CCN(C(=O)C2CC2)CC1", "note": "[Olaparib, olaparib]", "values": [{"measurement": "cells killed (colony formation)", "setting": "[2]", "value": "80-90%"}]}
{"molecule": "miR-223-3p: mirVana miR-223 3p mimic from Ambion life technologies (Cat #4464067); miR-223-3p is SEQ ID NO: 75; transfected with RNAiMAX (UGUCAGUUUGUCAAAUACCCCA; listed as RNA, chemistry not given here) [mirVana miR-223 3p mimic from Ambion life technologies (Cat #4464067); transfected with RNAiMAX]", "values": [{"measurement": "depletion of DNA repair components (Western)", "setting": "[3]", "value": "depletes other DNA repair components as well as PARP1"}, {"measurement": "PARP1 knockdown (Western)", "setting": "PARP1; BAP1 mutant mesothelioma", "value": "knockdown of PARP1"}, {"measurement": "PARP1 knockdown (Western)", "setting": "PARP1; EJ2-GFP cell reporter system", "value": "knockdown of PARP1"}, {"measurement": "PARP1 protein expression (Western)", "setting": "PARP1", "value": "represses PARP1 protein expression"}, {"measurement": "PARP1 protein expression (Western)", "setting": "PARP1; listed as mir223 mimic", "value": "knockdown of PARP1"}, {"measurement": "PARP1 repression/knockdown (Western)", "setting": "PARP1", "value": "Knockdown of PARP1"}, {"measurement": "PARP1 repression/knockdown (Western)", "setting": "PARP1; listed as miR223 mimic", "value": "repression of PARP1"}, {"measurement": "number of colonies", "setting": "[4]", "value": "decreased number of colonies"}, {"measurement": "number of colonies", "setting": "[5]", "value": "decreased number of colonies"}, {"measurement": "Luciferase expression (PARP1 3′ UTR linked to Firefly Luciferase)", "setting": "PARP1 3′ UTR mRNA", "value": "decreased"}, {"measurement": "Luciferase expression (PARP1 3′ UTR linked to Firefly Luciferase)", "setting": "PARP1 3′ UTR mRNA; listed as miR223-3p mimic", "value": "inhibition of PARP1"}, {"measurement": "active replication forks (BrdU)", "setting": "[6]", "value": "decreases active replication forks"}, {"measurement": "fraction of EJ2 cells with productive aNHEJ (GFP positive cells)", "setting": "aNHEJ", "value": "decreased"}]}
